Experimental data published in EP2295964A1, “Irrigation solution” (priority 2009, dated 2011).

Conditions: human, in vivo, iv
Experimental: The kinetics of the glucose infusion was studied to characterize how effectively the volunteers handled the glucose molecules as well as the accompanying water volume. […] 2003, 90, 600-607, in which the plasma concentration of glucose above baseline (C) at any time (t) resulting from the infusion rate ki is calculated by using the following differential equation: (dC)/(dt) = (ki -(CL×C(t)))/(Vd) [formula] in which Vd is the volume of distribution and CL is the glucose clearance.
The data were normally distributed and thus results were expressed as the mean and standard deviation (SD). Correlations were evaluated by linear regression analysis. P < 0.05 was considered statistically significant.

Substance: D-glucose
- Vd, volume of distribution of exogenous glucose: 15.52 L
